Data reported in patent publication US10111854B2, “Synthesis and use of amine-containing flavonoids as potent anti-leishmanial agents” (The Hong Kong Polytechnic University, priority 2014, dated 2018).
Where a name gives a salt, the structure may show the parent alone.

Legend:
[1] = test system: L. amazonensis LV78 promastigotes; experiment: Anti-promastigote activity (MTS assay), L. amazonensis LV78; assay type: cell-based; conditions: 72 hours
Description: (§1) Promastigotes of visceral L. donovani Ld39 and LdHU3, and cutaneous L. amazonensis LV78, L. braziliensis UA847 and L. major FV1 were employed in the study. All strains were cultured in Schneider's Drosophila Medium (Invitrogen), pH 6.9 supplemented with 10% (v/v) heat inactivated fetal bovine serum (Hyclone) with 4 mM glutamine (Sigma) and 25 μg/mL gentamicin solution (Invitrogen) at 27° C. for 4 days. RAW264.7 cells were cultured in supplemented DMEM media with 10% heat inactivated FBS and 100 U/mL penicillin and 100 μg/mL of streptomycin. They were maintained at 37° C. in a humidified atmosphere with 5% CO2. The cells were split constantly after a confluent monolayer has been formed. The cells were harvested by a cell scraper.
(§2) Anti-promastigote activity was determined according to previous procedures (1) by Cell Titer 96® Aqueous Assay (Promega) that employed a tetrazolium compound. Promastigotes were seeded into 96-well flat bottom microtiter plate at 1×10^5 cells per well in a final volume of 100 μL medium and incubated with a series of concentrations of synthetic FM. Parasites were incubated at 27° C. for 72 hours. After 72 hours of incubation, 10 μL of MTS:PMS mixture [MTS:2-(4,5-Dimethylthiazol-2-yl-)-5-[3-(carboxymethoxy)phenyl]-2-(4-sulfophenyl)-2H-tetrazolium); PMS: phenazine methosulfate both purchased from Sigma] was added into each well of microtiter plate. The plate was then incubated at 27° C. for 4 hours for color development. After 4 hours of incubation, the OD values were determined at 490 nm using automatic microtiter plate reader (Bio-Rad).
(§3) IC50 values of known antileishmanials and the amine-containing flavonoid monomers of the present invention to promastigotes (L. amazonensis LV78, L major FV1, L. donovani HU3, L. donovani 39), macrophages (Raw 264.7 and PEM) and mouse fibroblast (L929) were determined. The anti-promastigotes activities and cytotoxicity of the amine-containing flavonoid monomers of the invention are shown in Table 1.

[2] = test system: L. donovani HU3 promastigotes; experiment: Anti-promastigote activity (MTS assay), L. donovani HU3; assay type: cell-based; conditions: 72 hours
Description: as §1, §2, §3

[3] = test system: peritoneal elicited macrophages (PEM); experiment: Cytotoxicity, peritoneal elicited macrophages (PEM); assay type: cell-based, mouse
Description: (§4) Mouse peritoneal elicited macrophages (PEM) were obtained as previously described (2). A round cover slip (12 mm in diameter) was placed into each well of 24-well culture plate. Mouse PEM were resuspended in supplemented DMEM media containing 10% heat inactivated FBS (v/v), 100 U/mL penicillin and 100 μg/mL streptomycin and seeded into each well at a cell density of 1×10^5 cells per 500 μL. Macrophages were allowed to attach overnight. Non-adherent cells were removed by gentle washing with un-supplemented DMEM media twice. Adherent macrophages were infected with late-log promastigotes at a parasite-to-macrophage ratio of 20:1 overnight at 37° C. with 5% CO2. Non-internalized promastigotes were removed by washing twice with un-supplemented DMEM media. Infected macrophages were further incubated in 500 μL of supplemented DMEM media in the presence or absence of FM for 72 hours at 37° C. After incubation, cover slips were stained with Giemsa and the percentage of macrophages infected and number of amastigotes per 100 macrophages was enumerated.
as §3

[4] = test system: L. amazonensis LV78 amastigotes; experiment: Anti-amastigote activity in infected PEM, L. amazonensis LV78; assay type: cell-based; conditions: for IC50: infected PEM, 3 days, Giemsa; for Selective index (a)/(b): IC50 RAW264.7 over IC50 L. amazonensis LV78 amastigotes
Description: as §4
(§5) PEM cells were infected with late-log promastigotes (L. amazonensis LV78, L. braziliensis UA847, L. donovani HU3, L. donovani 39) for 24 hr at 37° C. Infected macrophages were then treated with various antileishmanials and incubated for 3 days at 37° C. After 3 days, the cover slips were stained with Giemsa. The number of amastigotes per 100 macrophages were determined and used to calculate IC50 values.

[5] = test system: L. donovani HU3 amastigotes; experiment: Anti-amastigote activity in infected PEM, L. donovani HU3; assay type: cell-based; conditions: infected PEM, 3 days, Giemsa, SSG-sensitive
Description: as §4, §5

[6] = Cytotoxicity, L929 fibroblasts; assay type: cell-based, mouse; conditions: mouse
Description: as §3

[7] = Cytotoxicity, peritoneal elicited macrophages (PEM); assay type: cell-based, mouse; conditions: mouse, Cytotoxicity IC50, PEM
Description: as §4, §3

[8] = Pharmacokinetics study of FM09, FM09h and FM05b, iv and oral; assay type: in vivo, Balb/c mice; conditions: 50 mg/kg oral; for bioavailability: Balb/c, mouse, plasma, 10 mg/kg iv, dose-adjusted AUC oral over iv, read-out: Bioavailability (F)
Description: Animals were sacrificed at the indicated time point and plasma level of the corresponding flavonoids were determined using LC-MSMS. IC50 of corresponding flavonoids are indicated. Bioavailability (F) was calculated by dividing the dose-adjusted area under curve (AUC) of that of orally-fed over intravenously administered animals.

[9] = test system: L. amazonensis and L. donovani HU3 promastigotes and amastigotes; experiment: Anti-promastigote and anti-amastigote activity of FM09, FM01 and FM05 derivatives; assay type: cell-based, Leishmania; conditions: stage and strain not specified; read-out: IC50, anti-promastigote and anti-amastigote activity (Table 3C)
Description: Derivatives of FM09, FM01 and FM05 were synthesized and their anti-promastigote and anti-amastigote activity were determined (Table 3C). Many amine-containing flavonoid monomers have IC50 less than 5 μM, including FM09a, FM09b, FM09c, FM09e, FM09h, FM09i, FM09k, FM09l, FM01b and FM05b.

[10] = test system: L. major FV1 promastigotes; experiment: Anti-promastigote activity (MTS assay), L. major FV1; assay type: cell-based; conditions: 72 hours
Description: as §1, §2, §3

[11] = test system: L. donovani Ld39 promastigotes; experiment: Anti-promastigote activity (MTS assay), L. donovani Ld39; assay type: cell-based; conditions: 72 hours
Description: as §1, §2, §3

[12] = test system: L. braziliensis UA847 amastigotes; experiment: Anti-amastigote activity in infected PEM, L. braziliensis UA847; assay type: cell-based; conditions: Leishmania braziliensis, 72 h, 3 days, Giemsa, read-out: Anti-amastigote activity IC50, L. baziliensis UA847
Description: as §4, §5

[13] = test system: L. donovani Ld39 amastigotes (SSG-resistant); experiment: Anti-amastigote activity in infected PEM, L. donovani Ld39; assay type: cell-based; conditions: for IC50: Leishmania donovani, 72 h, infected PEM, 3 days, Giemsa, SSG-resistant
Description: as §4, §5

mouse fibroblast (L929) = experiment: Cytotoxicity, L929 fibroblasts; assay type: cell-based; conditions: mouse fibroblast L929
Description: as §3

[14] = Pharmacokinetics of FM05 hydrochloride salt, oral; assay type: in vivo, Balb/c mice; conditions: mouse, in vivo, po, 42 mg/kg
Description: Based on the result of the preliminary in vivo study, FM05 hydrochloride salt was selected for further investigation. FM05 hydrochloride salt was dissolved in saline at 4 mg/ml and administered to male balb/c at 42 mg/kg. Blood plasma samples were collected at various time points for pharmacokinetics analysis (n=2 to 3 for each time point).

[15] = test system: amastigotes (L. amazonensis LV78, L. braziliensis UA847, L. donovani HU3, L. donovani 39); experiment: Anti-amastigote activity, strain not given; assay type: cell-based; conditions: strain not specified; visceral and cutaneous Leishmania; read-out: IC50 against amastigotes
Description: as §4, §5

SMILES	IC50 ([1]; Leishmania amazonensis) [µM]	IC50 ([2]; Leishmania donovani) [µM]	IC50 [6] [µM]	IC50 [7] [µM]	IC50 ([4]; Leishmania amazonensis, 72 h) [µM]	IC50 ([5]; Leishmania donovani, 72 h) [µM]	IC50 [9] [µM]	further results
O=c1cc(-c2ccc(OCCOCCNCc3ccccn3)cc2)oc2ccccc12 [FM09m.HCl]								IC50 [1]: 14.3 ± 3.3 µM; IC50 [2]: 18.2 ± 2.13 µM; IC50 [3]: 28.3 µM; IC50 [4]: 7.86 ± 2.15 µM; IC50 [5]: > 10 µM
Cc1c(OCC(F)(F)F)ccnc1CN(CCOCCOc1ccc(-c2cc(=O)c3ccccc3o2)cc1)Cc1nccc(OCC(F)(F)F)c1C [FM09h, 2-(4-(2-(2-(bis((3-methyl-4-(2,2,2-trifluoroethoxy)pyridin-2-yl)methyl)amino)ethoxy)ethoxy)phenyl)-4H-chromen-4-one]	0.47 ± 0.07	1.09 ± 0.09	3.62 ± 0.51	6.4	0.29 ± 0.05	0.3 ± 0.04	< 5	Time post oral feeding at which plasma level remains higher than respective IC50 [8]: 180 min; bioavailability [8]: 5%
O=C(NCCOCCOc1ccc(-c2cc(=O)c3ccccc3o2)cc1)c1ccncc1 [FM03, N-(2-(2-(4-(4-oxo-4H-chromen-2-yl)phenoxy)ethoxy)ethyl)isonicotinamide]	> 100	66.2 ± 11	> 100		> 10	> 9		IC50 ([10]; Leishmania major): > 100 µM; IC50 ([11]; Leishmania donovani): > 100 µM; IC50 [12]: > 10 µM; IC50 [13]: > 10 µM
O=c1cc(-c2ccc(OCCOCCN(Cc3cccnc3)Cc3cccnc3)cc2)oc2ccccc12 [FM09b.HCl]								IC50 [1]: 8.08 ± 1.99 µM; IC50 [2]: 12.9 ± 7.32 µM; IC50 (mouse fibroblast (L929)): 75.1 ± 13.6 µM; IC50 [4]: > 10 µM; IC50 [5]: > 10 µM
CCCCCCCCCCCCCCCCOP(=O)([O-])OCC[N+](C)(C)C [Miltefosine, reference compound]	32.7 ± 26.9	5.1 ± 1.4		75.3 ± 9.4	32.7 ± 26.9			IC50 ([10]; Leishmania major): 9.7 ± 1.2 µM; IC50 ([11]; Leishmania donovani): 17.3 ± 2.1 µM; Selective index (a)/(b) [4]: 0.6; IC50 [12]: 13 ± 1.3 µM; Selective index (a)/(c) ([13]; IC50 RAW264.7 over IC50 L. donovani Ld39 amastigotes): 1.3; IC50 [13]: 16 ± 6.4 µM
Cl.O=c1cc(-c2ccc(OCCC3CCN(Cc4ccncc4)CC3)cc2)oc2ccccc12 [FM05.HCl]								IC50 [1]: 6 ± 0.5 µM; IC50 [10]: 3.5 ± 0.9 µM; IC50 [11]: 1.2 ± 0.5 µM; IC50 [3]: 23.8 µM; IC50 ([4]; listed as FM05.HCI): 6.9 ± 0.9 µM; AUC(0-7 hr) [14]: 83089 ng·min/mL; Cmax (obs) [14]: 312.8 ng/mL; Half-life (Distribution and absorption) [14]: 0.417 h; Half-life (Elimination) [14]: 3.37 h; MRT (area) [14]: 5.35 h; Tmax (obs) [14]: 2 h
O=c1cc(-c2ccc(OCCOCCN(Cc3ncccc3F)Cc3ncccc3F)cc2)oc2ccccc12 [FM09c, 2-(4-(2-(2-(bis((3-fluoropyridin-2-yl)methyl)amino)ethoxy)ethoxy)phenyl)-4H-chromen-4-one]	3.19 ± 0.66	5.09 ± 1.13		35.4 ± 1.05	1.95 ± 0.78	3.1	< 5	
COc1ccnc(CN(CCOCCOc2ccc(-c3cc(=O)c4ccccc4o3)cc2)Cc2nccc(OC)c2OC)c1OC [FM09aHCl]								IC50 [1]: 0.77 ± 0.19 µM; IC50 [2]: 0.99 ± 0.19 µM; IC50 (mouse fibroblast (L929)): 12.9 ± 2.4 µM; IC50 [4]: 0.35 ± 0.01 µM; IC50 [5]: 0.5 ± 0.02 µM
COc1c(C)cnc(CN(CCOCCOc2ccc(-c3cc(=O)c4ccccc4o3)cc2)Cc2ncc(C)c(OC)c2C)c1C [FM09i, 2-(4-(2-(2-(bis((4-methoxy-3,5-dimethylpyridin-2-yl)methyl)amino)ethoxy)ethoxy)phenyl)-4H-chromen-4-one]	0.08 ± 0.01	0.18 ± 0.07	2.28 ± 0.83	4.5	0.27 ± 0.02	0.3 ± 0.05	< 5	
O=c1cc(-c2ccc(OCCOCCN(Cc3ccccc3)Cc3ccccc3)cc2)oc2ccccc12 [FM19, 2-(4-(2-(2-(dibenzylamino)ethoxy)ethoxy)phenyl)-4H-chromen-4-one]	17.5 ± 3.2	9.8 ± 2.5	55.1 ± 7.2		1.3 ± 0.6	> 10		IC50 ([10]; Leishmania major): 21.6 ± 4.2 µM; IC50 ([11]; Leishmania donovani): > 100 µM; Selective index (a)/(b) [4]: >76.9; IC50 [12]: < 0.37 µM; IC50 [13]: > 10 µM; IC50 [15]: < 5 µM
O=c1cc(-c2ccc(OCCOCCN(Cc3ccc4ccccc4n3)Cc3ccc4ccccc4n3)cc2)oc2ccccc12 [FM09l, 2-(4-(2-(2-(bis(quinolin-2-ylmethyl)amino)ethoxy)ethoxy)phenyl)-4H-chromen-4-one]	4.44 ± 1.24	4.74 ± 0.56	> 100	67.1	3.03 ± 0.41	4.5 ± 2.38	< 5	
COc1ccnc(CN2CCC(CCOc3ccc(-c4cc(=O)c5ccccc5o4)cc3)CC2)c1OC [FM05b, 2-(4-(2-(1-((3,4-dimethoxypyridin-2-yl)methyl)piperidin-4-yl)ethoxy)phenyl)-4H-chromen-4-one]	0.57 ± 0.17	0.89 ± 0.33	10.6 ± 1.13	5.1	0.3 ± 0.06	0.7 ± 0.37	< 5	Time post oral feeding at which plasma level remains higher than respective IC50 [8]: 420 min; bioavailability [8]: 36%
COCCCOc1ccnc(CN(CCOCCOc2ccc(-c3cc(=O)c4ccccc4o3)cc2)Cc2nccc(OCCCOC)c2C)c1C [FM09k, 2-(4-(2-(2-(bis((4-(3-methoxypropoxy)-3-methylpyridin-2-yl)methyl)amino)ethoxy)ethoxy)phenyl)-4H-chromen-4-one]	0.16 ± 0.05	1.06 ± 0.1	4.7 ± 0.71	5.3	0.32 ± 0.02	0.3 ± 0.04	< 5	
CS(=O)(=O)NCCOCCOc1ccc(-c2cc(=O)c3ccccc3o2)cc1 [FM07, N-(2-(2-(4-(4-oxo-4H-chromen-2-yl)phenoxy)ethoxy)ethyl)methanesulfonamide]	> 100	38.8 ± 6.9	26 ± 4.1		> 10			IC50 ([10]; Leishmania major): > 100 µM; IC50 ([11]; Leishmania donovani): 21.4 ± 2.6 µM; IC50 [12]: > 10 µM; IC50 [13]: > 10 µM
